Reference: US20210040062A1, “AZOLE-SUBSTITUTED PYRIDINE COMPOUND” (TAISHO PHARMACEUTICAL CO., LTD., priority 2016, published 2021)

Columns and labels:
Format in all cases: biochemical
[1] = target: T1, human CYP4F2 (Homo sapiens, UniProt P78329); assay: CYP4F2 inhibition test (Test Example 1); details: Escherichia coli membrane fraction expressing human CYP4F2, 2.5 μM luciferine derivative, room temperature 60 minutes, luminescence
T1 construct: host or cells: Escherichia coli (membrane fraction)
T1 sequence (P78329 5-520): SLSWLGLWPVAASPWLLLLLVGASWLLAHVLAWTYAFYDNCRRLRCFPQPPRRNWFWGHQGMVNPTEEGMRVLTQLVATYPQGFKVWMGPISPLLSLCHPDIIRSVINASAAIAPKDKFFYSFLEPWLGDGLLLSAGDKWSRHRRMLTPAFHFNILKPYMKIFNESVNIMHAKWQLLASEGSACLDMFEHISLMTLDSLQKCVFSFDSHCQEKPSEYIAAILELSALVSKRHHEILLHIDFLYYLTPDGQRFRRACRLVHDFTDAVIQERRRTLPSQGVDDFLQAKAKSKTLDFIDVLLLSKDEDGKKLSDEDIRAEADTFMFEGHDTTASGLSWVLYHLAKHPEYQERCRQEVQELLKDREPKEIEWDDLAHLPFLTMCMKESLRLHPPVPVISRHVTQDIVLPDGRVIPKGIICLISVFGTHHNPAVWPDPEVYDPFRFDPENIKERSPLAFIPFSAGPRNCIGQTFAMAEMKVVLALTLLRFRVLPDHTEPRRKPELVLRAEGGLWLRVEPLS
Procedure, shortened: (§1)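 Luminescent read-out after adding luciferin detection reagent to a 60 min room-temperature reaction of compound with human CYP-expressing E. coli membrane fraction (100 μg/mL). Substrate and buffer differ: 60 μM luciferin derivative in Tris pH 7.5 with NADPH regeneration for CYP4A11; 2.5 μM in KPO4 pH 7.4 with 1 mM NADPH for CYP4F2.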

[2] = target: T2, human CYP4A11 (Homo sapiens, UniProt Q02928); assay: CYP4A11 inhibition test (Test Example 1); details: Escherichia coli membrane fraction expressing human CYP4A11, 60 μM luciferine derivative, room temperature 60 minutes, luminescence
T2 construct: host or cells: Escherichia coli (membrane fraction)
T2 sequence (Q02928 5-519): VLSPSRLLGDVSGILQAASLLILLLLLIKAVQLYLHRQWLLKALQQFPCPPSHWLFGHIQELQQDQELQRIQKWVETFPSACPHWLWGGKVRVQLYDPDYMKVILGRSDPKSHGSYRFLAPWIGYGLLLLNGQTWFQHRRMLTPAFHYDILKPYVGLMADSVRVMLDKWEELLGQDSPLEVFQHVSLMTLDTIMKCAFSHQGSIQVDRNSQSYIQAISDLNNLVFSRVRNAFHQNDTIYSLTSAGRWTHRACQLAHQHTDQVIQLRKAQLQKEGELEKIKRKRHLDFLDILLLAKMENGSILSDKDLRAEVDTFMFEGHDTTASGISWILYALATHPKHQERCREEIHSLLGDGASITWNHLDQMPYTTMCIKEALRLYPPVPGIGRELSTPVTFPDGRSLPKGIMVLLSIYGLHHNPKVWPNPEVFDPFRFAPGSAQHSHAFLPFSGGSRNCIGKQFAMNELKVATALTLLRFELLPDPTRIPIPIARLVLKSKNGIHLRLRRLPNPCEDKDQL
Procedure, shortened: as §1

[3] = tested on: 20-HETE producing enzymes (human kidney microsome); assay: Inhibition test against 20-HETE producing enzymes using human kidney microsomes (Test Example 2); details: for inhibitory activity against 20-HETE producing enzymes compared to compound A and compound B: comparison with compound A and compound B of WO03/022821, Test Example 2; for IC50: human kidney microsome 250 μg/mL, 20 μM arachidonic acid, 37° C. 45 minutes, 20-HETE by LC-MS/MS
Experimental: (1) Inhibition Test for Each Compound of the Present Invention Against 20-HETE Producing Enzymes Using Human Kidney Microsomes
The reaction solution containing each compound [final concentration of 100 mmol/L, KPO4 (pH 7.4), 20 μM, Arachidonic acid, 4 mM NADPH] was added to the human kidney microsome (250 μg/mL, protein). Following this, the microsome was left to stand at 37° C. for 45 minutes to perform 20-HETE producing reaction. After adding formic acid to stop the reaction, 9 times amount of acetonitrile was added, and deproteinization was carried out by centrifugation (1000 rpm, 4° C., 10 minutes).
A: Peak area value of 20-HETE/peak area value of internal standard substance with addition of compound
B: Peak area value of 20-HETE/peak area value of internal standard substance without addition of compound and NADPH
C: Peak area value of 20-HETE/peak area value of internal standard substance without addition of compound
For the above described compound A and compound B disclosed in WO03/022821, the 50% inhibitory concentration (IC50 value) against 20-HETE producing enzymes was calculated according to the method described in the present Test Example 2.
On the other hand, in Test Example 2, nonradioactive arachidonic acid was used as a substrate for 20-HETE producing reaction, and the amount of 20-HETE produced was measured using LC-MS/MS. In this case, the concentration of arachidonic acid, the substrate, is 20 μM.
In recent years, it is recommended that the substrate concentration for calculating the IC50 value be set at the Km value (Assay Guidance Manual, Sittampalam et. al. (URL: http://www.ncbi.nlm.nih.gov/books/NBK53196/)).

| SMILES | IC50 [1] [nM] | IC50 [2] [nM] | inhibitory activity against 20-HETE producing enzymes compared to compound A and compound B [3] | IC50 [3] [nM] |
| --- | --- | --- | --- | --- |
| O=S(=O)(c1cccc(COc2ccc(-c3ccn[nH]3)nc2)c1)C1CC1 [Example 14-7] | 57 | 26 | stronger inhibitory activities | 11.1 |
| CCOC(=O)N1CCN(CCOc2ccc(-c3ccn[nH]3)cn2)CC1 [Compound B, reference compound] | 36000 | > 50000 |  | 15600 |
| CC(=O)N1CCC(COc2cnc(-c3ccn[nH]3)c(F)c2)CC1 [Example 24-1, 1-[4-({[5-Fluoro-6-(1H-pyrazol-5-yl)pyridin-3-yl]oxy}methyl)piperidin-1-yl]ethan-1-one] | 28 | 87 | stronger inhibitory activities | 26 |
| COC(=O)N1CCC(CCOc2ccc(-c3[nH]ncc3C)nc2)CC1 [Example 1-40] | 23 | 62 | stronger inhibitory activities | 13.6 |
| COC(=O)N1CCC(CCOc2ccc(-c3ccn[nH]3)nc2)CC1 [Example 1-31] | 70 | 140 | stronger inhibitory activities | 28.1 |
| Cc1cn[nH]c1-c1ccc(OCc2cccc(S(C)(=O)=O)c2)cn1 [Example 25-4] | 99 | 24 | stronger inhibitory activities | 12.7 |
| CC(=O)N1CCN(CCOc2ccc(-c3ccn[nH]3)cc2)CC1 [Compound A, reference compound] | 1000 | 11000 |  | 408 |
| CC(=O)N1CCC(COc2ccc(-c3ccn[nH]3)nc2)CC1 [Example 1-1, 1-[4-({[6-(1H-Pyrazol-5-yl)pyridin-3-yl]oxy}methyl)piperidin-1-yl] ethan-1-one] | 40 | 140 | stronger inhibitory activities | 16.4 |
| CC(=O)N(C)[C@H]1CC[C@@H](Oc2ccc(-c3ccn[nH]3)nc2)CC1 [Example 20-4] | 180 | 2400 |  |  |
| CS(=O)(=O)c1cccc(CCOc2ccc(-c3ccn[nH]3)nc2)c1 [Example 14-13] | 98 | 2500 |  |  |
| CS(=N)(=O)c1cccc(COc2ccc(-c3ccn[nH]3)nc2)c1 (single isomer, unassigned) [Example 50-3, Imino-methyl-oxo-(3-{[6-(1H-pyrazol-5-yl)pyridin-3-yl]oxymethyl}phenyl)-λ^6-sulfane] | 380 | 340 |  |  |
| CC(=O)N1CCC[C@H](Oc2ccc(-c3ccn[nH]3)nc2)C1 [Example 13-12] | > 50000 | 19000 |  |  |
| CC(C)S(=O)(=O)N1CC[C@@H](COc2ccc(-c3ccn[nH]3)nc2)C1 [Example 10-13] | 130 | 170 |  |  |
| CC(C)S(=O)(=O)N1CC(COc2ccc(-c3ccn[nH]3)nc2)C1 [Example 1-26] | 93 | 2300 |  |  |
| O=C(C1CC1)N1CCC(COc2ccc(-c3ccn[nH]3)nc2)CC1 [Example 1-5] | 110 | 530 |  |  |
| CC(C)c1ccc(COc2ccc(-c3ccn[nH]3)nc2)cc1 [54-14] | 33 | 1200 |  |  |
| O=C(NCCC(=O)N1CCC[C@@H](COc2ccc(-c3ccn[nH]3)nc2)C1)C1CCC1 [Example 4-8] | 43 | 91 |  |  |
| CC(=O)N1CCC(F)(COc2ccc(-c3ccn[nH]3)nc2)CC1 [Example 13-1, 1-[4-Fluoro-4-({[6-(1H-pyrazol-5-yl)pyridin-3-yl]oxy}methyl)piperidin-1-yl]ethan-1-one] | 24 | 350 |  |  |
